Laboratory results taken from patent publication US20080146559A1, “4,5,6,7-Tetrahydro-Thieno [2,3-C] Pyridine Derivatives” (priority 2006, published 2008).

Target: T1, human H3R (Homo sapiens, UniProt Q9Y5N1)
T1 construct: expressed in transfected cells; host or cells: CHO cells (membranes)
Test: Binding assay with 3H-(R)α-methylhistamine (competition binding)
Settings: membrane of the human H3R-CHO cell line, 3H(R)α-methylhistamine 1 nM, Ki calculated from IC50 by Cheng-Prusoff
Method: Binding assay with ^3H—(R)α-methylhistamine
Saturation binding experiments were performed using HR3-CHO membranes prepared as described in Takahashi, K, Tokita, S., Kotani, H. (2003) J. Pharmacol. Exp. Therapeutics 307, 213-218.
An appropriate amount of membrane (60 to 80 μg protein/well) was incubated with increasing concentrations of ^3H(R)α-Methylhistamine di-hydrochloride (0.10 to 10 nM). Non specific binding was determined using a 200 fold excess of cold (R)α-Methylhistamine dihydrobromide (500 nM final concentration). The incubation was carried out at room temperature (in deep-well plates shaking for three hours). The final volume in each well was 250 μl. The incubation was followed by rapid filtration on GF/B filters (pre-soaked with 100 μl of 0.5% PEI in Tris 50 mM shaking at 200 rpm for two hours). The filtration was made using a cell-harvester and the filter plates were then washed five times with ice cold washing buffer containing 0.5 M NaCl. After harvesting, the plates were dried at 55° C. for 60 min, then we added scintillation fluid (Microscint 40, 40 microl in each well) and the amount of radioactivity on the filter was determined in Packard top-counter after shaking the plates for two hours at 200 rpm at room temperature.
Binding Buffer: 50 mM Tris-HCl pH 7.4 and 5 mM MgCl2×6H2O pH 7.4. Washing Buffer: 50 mM Tris-HCl pH 7.4 and 5 mM MgCl2×6H2O and 0.5 M NaCl pH 7.4. Indirect measurement of affinity of H3R inverse agonists: twelve increasing concentrations (ranging from 10 μM to 0.3 nM) of the selected compounds were always tested in competition binding experiments using membrane of the human H3R—CHO cell line. An appropriate amount of protein, e.g. approximately 500 cpm binding of RAMH at Kd, were incubated for 1 hour at room temperature in 250 μl final volume in 96-well plates in presence of ^3H(R)α-methylhistamine (1 nM final concentration=Kd). Non-specific binding was determined using a 200 fold excess of cold (R)α-methylhistamine dihydrobromide.
All compounds were tested at a single concentration in duplicate. […] The concentration at which 50% inhibition of the radioligand ^3H(R)α-methylhistamine is obtained (the IC50) is determined from the linear regression of a plot of the logarithm of the concentration versus percent inhibition measured for the different concentrations. Ki's were calculated from IC50 based on Cheng-Prusoff equation (Cheng, Y, Prusoff, W H (1973) Biochem Pharmacol 22, 3099-3108): Ki=IC50/[1+D/Kd] wherein D is the concentration of the radioligand and Kd is the binding constant for the radioligand binding to the receptor under the conditions used in the competition experiment.

T1 sequence (Q9Y5N1 whole entry): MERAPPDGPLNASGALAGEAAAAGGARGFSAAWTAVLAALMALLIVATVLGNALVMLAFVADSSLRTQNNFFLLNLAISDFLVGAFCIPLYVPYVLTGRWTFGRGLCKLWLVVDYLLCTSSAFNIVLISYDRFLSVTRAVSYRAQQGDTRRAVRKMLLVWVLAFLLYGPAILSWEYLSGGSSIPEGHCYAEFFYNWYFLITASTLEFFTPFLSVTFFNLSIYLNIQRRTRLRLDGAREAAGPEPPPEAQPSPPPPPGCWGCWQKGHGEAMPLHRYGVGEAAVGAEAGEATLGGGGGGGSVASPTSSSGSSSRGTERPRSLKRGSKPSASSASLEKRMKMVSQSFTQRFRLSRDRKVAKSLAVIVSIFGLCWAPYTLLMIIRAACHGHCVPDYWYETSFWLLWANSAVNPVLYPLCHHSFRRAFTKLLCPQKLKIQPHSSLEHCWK

| Compound | Ki |
| --- | --- |
| O=C(c1cccc(F)c1)N1CCc2cc(OCCCN3CCCCC3)sc2C1 [Example 10, (3-fluoro-phenyl)-[2-(3-piperidin-1-yl-propoxy)-4,7-dihydro-5H-thieno[2,3-c]pyridin-6-yl]-methanone] | 31.3 nM |
| CC(C)(C)CC(=O)N1CCc2cc(OCCCN3CCCC3)sc2C1 [Example 20, 3,3-dimethyl-1-[2-(3-pyrrolidin-1-yl-propoxy)-4,7-dihydro-5H-thieno[2,3-c]pyridin-6-yl]-butan-1-one] | 40.9 nM |
| O=S(=O)(c1ccccc1)N1CCc2cc(OCCCN3CCCC3)sc2C1 [Example 32, 6-benzenesulfonyl-2-(3-pyrrolidin-1-yl-propoxy)-4,5,6,7-tetrahydro-thieno[2,3-c]pyridine] | 33.6 nM |
| CC(C)CN1CCC(Oc2cc3c(s2)CN(C(=O)CC(C)(C)C)CC3)CC1 [Example 44, 1-[2-(1-isobutyl-piperidin-4-yloxy)-4,7-dihydro-5H-thieno[2,3-c]pyridin-6-yl]-3,3-dimethyl-butan-1-one] | 41.7 nM |
| CC(C)CC(=O)N1CCc2cc(OC3CCN(C(C)C)CC3)sc2C1 [Example 64, 1-[2-(1-isopropyl-piperidin-4-yloxy)-4,7-dihydro-5H-thieno[2,3-c]pyridin-6-yl]-3-methyl-butan-1-one] | 13.1 nM |
| Cc1ccc(S(=O)(=O)N2CCc3cc(OC4CCN(C(C)C)C4)sc3C2)cc1 (stereo not drawn) [Example 94, 2-(1-isopropyl-pyrrolidin-3-yloxy)-6-(toluene-4-sulfonyl)-4,5,6,7-tetrahydro-thieno[2,3-c]pyridine] | 64.3 nM |
